Format in all cases: in vivo
One data set has as its system Colon LS180. Put plainly: 124I-CLR1404 tumor uptake, model 7. As to conditions: SCID mouse, Adenocarcinoma. As for the experimental part: (§1) All described animal studies were performed according to animal protocols approved by the Institutional Animal Care and Use Committee. Female athymic nude mice (Hsd:Athymic Nude-Foxnlnu or Crl:NU-Foxnlnu, Charles River Laboratories) about 4 to 5 weeks of age, 16 to 18 g (n=6), were used for human tumor xenograft studies. Mice were anesthetized with isoflurane and injected subcutaneously with viable tumor cells in 100 μl of Dulbecco's PBS (or, for glioma cells, […] of PBS) into the right flank. Inoculum sizes were 1×10^6 (for renal, ovarian, glioma, pancreatic, prostate, and NSCLC models), […] (for colorectal and uterine models), or 3×10^6 (breast).
(§2) Radioiodinated ^124I-CLR1404 was tested in subcutaneous and orthotopic xenografts of 60 different spontaneous, transgenic, human, and rodent malignant cell lines and tumor types. […] Representative examples are of both human (FIG. 5A-5I) and rodent (FIG. 5J-M) tumors.

In the next data set the test system is Adrenal RL-251. As to the kind of experiment: 124I-CLR1404 tumor uptake, model 5. The settings on record: SCID mouse, Adenocarcinoma. The procedure:
as §1, §2

A further data set has as its system Neuroblastoma NB1691. Put plainly: 124I-CLR1404 tumor uptake, model 15. As to conditions: Nude mouse. The procedure: as §1, §2
In a further data set the test system is Head and neck SCC6. Put plainly: 124I-CLR1404 tumor uptake, model 27. The settings on record: Nude mouse, Squamous cell carcinoma. The procedure: as §1, §2
For another data set, the system named is Ovarian Ovcar-3. As to the kind of experiment: 124I-CLR1404 tumor uptake, model 19. As to conditions: Nude mouse, Adenocarcinoma. As for the experimental part: as §1, §2
The subject of a further data set is Melanoma A-375. Put plainly: 124I-CLR1404 tumor uptake, model 12. As to conditions: Nude mouse. The procedure:
as §1, §2

In another data set the test system is Multiple myeloma MM.1S. Put plainly: 124I-CLR1404 tumor uptake, model 13. As to conditions: Nude mouse. As for the experimental part: as §1, §2
The test system of the next data set is Renal cell Caki-2. Put plainly: 124I-CLR1404 tumor uptake, model 23. The settings on record: Nude mouse (orthotopic), Clear cell carcinoma. As for the experimental part:
as §1, §2

For the next data set, the system named is Glioblastoma 105 GSC. Put plainly: 124I-CLR1404 tumor uptake, model 34. The settings on record: NOD-SCID mouse (orthotopic), Glioma. As for the experimental part: as §1, §2
The next data set relates to Colon Pirc. As to the kind of experiment: 124I-CLR1404 tumor uptake, model 41. As to conditions: Autochthonous Pirc rat, Adenocarcinoma. The procedure:
as §1, §2

The next data set deals with Esophageal. Put plainly: 124I-CLR1404 tumor uptake, model 55. The settings on record: Endogenous Mouse, Adenocarcinoma. The procedure: as §1, §2
The next data set has as its system Melanoma. Put plainly: 124I-CLR1404 tumor uptake, model 43. As to conditions: Mouse. The procedure: as §1, §2
The next data set concerns Sarcoma (Meth-A). As to the kind of experiment: 124I-CLR1404 tumor uptake, model 25. As to conditions: Nude mouse, Fibrosarcoma. As for the experimental part:
as §1, §2

The next data set concerns Lung A-549 (NSCLC). Put plainly: 124I-CLR1404 tumor uptake, model 2. The settings on record: SCID mouse, Adenocarcinoma. As for the experimental part:
as §1, §2

In another data set the test system is Prostate PC-3. As to the kind of experiment: 124I-CLR1404 tumor uptake, model 1. The settings on record: SCID mouse, Adenocarcinoma. As for the experimental part:
as §1, §2

In the next data set the test system is Cervical-HPV. As to the kind of experiment: 124I-CLR1404 tumor uptake, model 54. As to conditions: Endogenous mouse, Adenocarcinoma. As for the experimental part: as §1, §2
Data set [1] deals with Mammary alveolar hyperplasia. Put plainly: 124I-CLR1404 tumor uptake, model 57. As to conditions: Endogenous mouse, Hyperplasia (benign). The procedure:
as §1, §2

Regarding `C[N+](C)(C)CCOP(=O)([O-])OCCCCCCCCCCCCCCCCCCc1ccc(I)cc1` [^124I-CLR1404], the Uptake result is “Yes (Tumor uptake was considered positive if tumor to muscle ratio was greater than 3.)” in the data set on Colon LS180; “Yes (Tumor uptake was considered positive if tumor to muscle ratio was greater than 3.)” with Adrenal RL-251; “Yes (Tumor uptake was considered positive if tumor to muscle ratio was greater than 3.)” in the data set on Neuroblastoma NB1691; “Yes (Tumor uptake was considered positive if tumor to muscle ratio was greater than 3.)” with Head and neck SCC6; “Yes (Tumor uptake was considered positive if tumor to muscle ratio was greater than 3.)” in the data set on Ovarian Ovcar-3; “Yes (Tumor uptake was considered positive if tumor to muscle ratio was greater than 3.)” in the data set with Melanoma A-375. In addition, the Uptake entry in the data set on Multiple myeloma MM.1S, with Renal cell Caki-2, in the data set on Glioblastoma 105 GSC, in the data set on Colon Pirc, in the data set with Esophageal and in the data set with Melanoma was “Yes (Tumor uptake was considered positive if tumor to muscle ratio was greater than 3.)” throughout. Further, the Uptake result in the data set on Sarcoma (Meth-A) is given as “Yes (Tumor uptake was considered positive if tumor to muscle ratio was greater than 3.)”; with Lung A-549 (NSCLC), “Yes (Tumor uptake was considered positive if tumor to muscle ratio was greater than 3.)”; with Prostate PC-3, “Yes (Tumor uptake was considered positive if tumor to muscle ratio was greater than 3.)”; in the data set on Cervical-HPV, “Yes (Tumor uptake was considered positive if tumor to muscle ratio was greater than 3.)”; in [1], “No (Tumor:muscle ratio less than or equal to 2 was considered negative.)”.

Source of the values: patent publication US9480754B2, “Phospholipid ether analogs as cancer-targeting drug vehicles” (Cellectar Biosciences, Inc., priority 2014, dated 2016).
